Experimental data as given in PubChem BioAssay AID330 (DTP/NCI, 2004).
Values joined by “and” are separate entries in the source; they are usually repeats but may differ in a detail not shown here. Equal values may be shown once. Inconclusive results and toxic doses are left out. Rule for the calls: active = survival T/C of 150% or more; inactive = T/C below 125% in these data.

Test system: P388 leukemia ip, CD2F1 mice, survival T/C
Assay: NCI In Vivo Anticancer Drug Screen. Data for tumor model P388 Leukemia (intraperitoneal) in CD2F1 (CDF1) mice
Conditions: endpoint: median survival time, higher = longer survival
Summary of the method: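 Mice carrying the transplanted tumor received test compound or vehicle. Survival was recorded in each group, and the value is the treated-group measurement divided by that of the vehicle-treated control group.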

[1] = dose: 50.0 mg/kg/injection, schedule: Q01DX009 (ip), vehicle: saline
[2] = dose: 100.0 mg/kg/injection, schedule: Q01DX009 (ip), vehicle: saline
[3] = dose: 200.0 mg/kg/injection, schedule: Q01DX009 (ip), vehicle: saline
[4] = dose: 100.0 mg/kg/injection, schedule: Q04DX002 (ip), vehicle: saline with Tween-80
[5] = dose: 12.5 mg/kg/injection, schedule: Q01DX009 (ip), vehicle: distilled water + Tween-80
[6] = dose: 25.0 mg/kg/injection, schedule: Q01DX009 (ip), vehicle: distilled water + Tween-80
[7] = dose: 50.0 mg/kg/injection, schedule: Q01DX009 (ip), vehicle: distilled water + Tween-80
[8] = dose: 100.0 mg/kg/injection, schedule: Q01DX009 (ip), vehicle: distilled water + Tween-80
[9] = dose: 200.0 mg/kg/injection, schedule: Q01DX009 (ip), vehicle: distilled water + Tween-80
[10] = dose: 6.25 mg/kg/injection, schedule: Q01DX009 (ip), vehicle: saline

Measured: T/C

O=C(/C=C(\C(=O)c1ccccc1)c1ccccc1)c1ccccc1
inactive: dose: 50.0 mg/kg/injection, schedule: Q01DX009 (ip), vehicle: saline sonified 100 % of control | dose: 100.0 mg/kg/injection, schedule: Q01DX009 (ip), vehicle: saline sonified 100 % of control | dose: 200.0 mg/kg/injection, schedule: Q01DX009 (ip), vehicle: saline sonified 100 % of control

COc1cc(NCCCNCC(C)(C)C)c2ncccc2c1
inactive: dose: 1.25 mg/kg/injection, schedule: Q01DX009 (ip), vehicle: Klucel (hydroxypropylcellulose) (HPC) 100 % of control | dose: 2.5 mg/kg/injection, schedule: Q01DX009 (ip), vehicle: Klucel (hydroxypropylcellulose) (HPC) 95 % of control | dose: 5.0 mg/kg/injection, schedule: Q01DX009 (ip), vehicle: Klucel (hydroxypropylcellulose) (HPC) 94 % of control | dose: 10.0 mg/kg/injection, schedule: Q01DX009 (ip), vehicle: Klucel (hydroxypropylcellulose) (HPC) 99 % of control

CS(=O)(=O)/C=C/C([N+](=O)[O-])[N+](=O)[O-]
inactive: dose: 100.0 mg/kg/injection, schedule: Q04DX003 (ip), vehicle: saline 109 % of control | dose: 200.0 mg/kg/injection, schedule: Q04DX003 (ip), vehicle: saline 104 % of control | dose: 400.0 mg/kg/injection, schedule: Q04DX003 (ip), vehicle: saline 92 % of control

COC(=O)Nn1c(C)c(C(=O)Nc2ccc(OC)cc2)c(C(=O)OC)c1C
inactive: dose: 60.0 mg/kg/injection, schedule: Q01DX005 (ip), vehicle: saline with Tween-80 97 % of control | dose: 120.0 mg/kg/injection, schedule: Q01DX005 (ip), vehicle: saline with Tween-80 100 % of control | dose: 240.0 mg/kg/injection, schedule: Q01DX005 (ip), vehicle: saline with Tween-80 97 % of control

CC1CN(Cc2ccccc2O)CC(C)N1 (stereo not given)
inactive: dose: 6.25 mg/kg/injection, schedule: Q01DX009 (ip), vehicle: water 90 % of control | dose: 12.5 mg/kg/injection, schedule: Q01DX009 (ip), vehicle: water 93 % of control | dose: 25.0 mg/kg/injection, schedule: Q01DX009 (ip), vehicle: water 106 % of control | dose: 50.0 mg/kg/injection, schedule: Q01DX009 (ip), vehicle: water 91 % of control | dose: 100.0 mg/kg/injection, schedule: Q01DX009 (ip), vehicle: water 94 % of control

O=C1c2ccccc2-c2cccc3ccnc1c23
inactive: dose: 8.0 mg/kg/injection, schedule: Q01DX009 (ip), vehicle: Klucel (hydroxypropylcellulose) (HPC) 103 % of control | dose: 16.0 mg/kg/injection, schedule: Q01DX009 (ip), vehicle: Klucel (hydroxypropylcellulose) (HPC) 101 % of control | dose: 32.0 mg/kg/injection, schedule: Q01DX009 (ip), vehicle: Klucel (hydroxypropylcellulose) (HPC) 103 % of control | dose: 64.0 mg/kg/injection, schedule: Q01DX009 (ip), vehicle: Klucel (hydroxypropylcellulose) (HPC) 100 % of control

CCCCCCCCC(C(=O)N/N=C(\C)c1ccccc1)C(=O)N/N=C(\C)c1ccccc1
inactive: [1] 101 % of control | [2] 105 % of control | [3] 100 % of control

C1=CC2C1C1OC1C1OC21 (stereo not given)
inactive: [4] 101 % of control | dose: 200.0 mg/kg/injection, schedule: Q04DX002 (ip), vehicle: saline with Tween-80 100 % of control | dose: 400.0 mg/kg/injection, schedule: Q04DX002 (ip), vehicle: saline with Tween-80 101 % of control

O=C(CCl)NC(Cc1cccs1)C(=O)O (stereo not given)
inactive: [1] 98 % of control | [2] 93 % of control | [3] 96 % of control

CN(C(=O)c1cc2c(cc1Br)OCO2)c1cccc2ccccc12
inactive: [5] 98 % of control | [6] 103 % of control | [7] 103 % of control | [8] 95 % of control | [9] 100 % of control

COC(=O)c1onc2ccc(Cl)cc12
inactive: dose: 18.75 mg/kg/injection, schedule: Q01DX005 (ip), vehicle: Klucel (hydroxypropylcellulose) (HPC) 99 % of control | dose: 37.5 mg/kg/injection, schedule: Q01DX005 (ip), vehicle: Klucel (hydroxypropylcellulose) (HPC) 92 % of control | dose: 75.0 mg/kg/injection, schedule: Q01DX005 (ip), vehicle: Klucel (hydroxypropylcellulose) (HPC) 93 % of control | dose: 150.0 mg/kg/injection, schedule: Q01DX005 (ip), vehicle: Klucel (hydroxypropylcellulose) (HPC) 95 % of control

CCN(CC)CCNc1cc(O)c2c(c1O)C(=O)c1ccccc1C2=O
inactive: dose: 25.0 mg/kg/injection, schedule: Q04DX002 (ip), vehicle: saline with Tween-80 105 % of control | dose: 50.0 mg/kg/injection, schedule: Q04DX002 (ip), vehicle: saline with Tween-80 98 % of control | [4] 103 % of control and 107 % of control

CC(=O)OCC(=O)[C@@]12OC(C)(C)O[C@@H]1C[C@H]1[C@@H]3CC(C=O)=C4C=C(OCCCl)CC[C@]4(C)[C@@]3(F)[C@@H](O)C[C@@]12C
inactive: dose: 0.39 mg/kg/injection, schedule: Q01DX009 (ip), vehicle: Klucel (hydroxypropylcellulose) (HPC) 106 % of control | dose: 0.78 mg/kg/injection, schedule: Q01DX009 (ip), vehicle: Klucel (hydroxypropylcellulose) (HPC) 113 % of control | dose: 1.56 mg/kg/injection, schedule: Q01DX009 (ip), vehicle: Klucel (hydroxypropylcellulose) (HPC) 115 % of control

CCOC1=Cc2c(oc3c(C(C)(C)C)cc(OCC)cc23)OC(C(C)(C)C)=C1
inactive: dose: 3.12 mg/kg/injection, schedule: Q01DX009 (ip), vehicle: saline with Tween-80 103 % of control | dose: 6.25 mg/kg/injection, schedule: Q01DX009 (ip), vehicle: saline with Tween-80 92 % of control | dose: 12.5 mg/kg/injection, schedule: Q01DX009 (ip), vehicle: saline with Tween-80 100 % of control | dose: 25.0 mg/kg/injection, schedule: Q01DX009 (ip), vehicle: saline with Tween-80 100 % of control

COc1ccc(Cl)cc1C
inactive: [5] 99 % of control | [6] 97 % of control | [7] 98 % of control | [8] 98 % of control | [9] 108 % of control | dose: 400.0 mg/kg/injection, schedule: Q01DX009 (ip), vehicle: distilled water + Tween-80 116 % of control

O=C(NN(Cn1c(=S)sc2ccccc21)Cn1c(=S)sc2ccccc21)c1ccncc1
inactive: dose: 3.12 mg/kg/injection, schedule: Q01DX009 (ip), vehicle: Klucel (hydroxypropylcellulose) (HPC) 105 % of control and 98 % of control | dose: 6.25 mg/kg/injection, schedule: Q01DX009 (ip), vehicle: Klucel (hydroxypropylcellulose) (HPC) 93 % of control and 94 % of control | dose: 12.5 mg/kg/injection, schedule: Q01DX009 (ip), vehicle: Klucel (hydroxypropylcellulose) (HPC) 88 % of control and 92 % of control

COCCC/C=C\N1CCOCC1
inactive: [1] 99 % of control | [2] 101 % of control | [3] 95 % of control

O=C(O)CN(CCN(CC(=O)O)CC(=O)O)CCN(CC(=O)O)CC(=O)O
inactive: dose: 50.0 mg/kg/injection, schedule: Q01DX005 (ip), vehicle: Klucel (hydroxypropylcellulose) (HPC) 103 % of control | dose: 100.0 mg/kg/injection, schedule: Q01DX005 (ip), vehicle: Klucel (hydroxypropylcellulose) (HPC) 108 % of control | dose: 100.0 mg/kg/injection, schedule: Q01DX009 (ip), vehicle: Klucel (hydroxypropylcellulose) (HPC) 91 % of control | dose: 200.0 mg/kg/injection, schedule: Q01DX005 (ip), vehicle: Klucel (hydroxypropylcellulose) (HPC) 103 % of control | dose: 200.0 mg/kg/injection, schedule: Q01DX009 (ip), vehicle: Klucel (hydroxypropylcellulose) (HPC) 94 % of control

NCC=C1C2CC3CC(C2)CC1C3
inactive: [10] 105 % of control and 107 % of control and 120 % of control | dose: 12.5 mg/kg/injection, schedule: Q01DX009 (ip), vehicle: saline 107 % of control (2×) and 117 % of control | dose: 25.0 mg/kg/injection, schedule: Q01DX009 (ip), vehicle: saline 111 % of control and 94 % of control | [1] 103 % of control

CN(C)c1ccc(N=O)cc1
inactive: dose: 1.56 mg/kg/injection, schedule: Q01DX009 (ip), vehicle: saline 110 % of control | dose: 3.12 mg/kg/injection, schedule: Q01DX009 (ip), vehicle: saline 110 % of control | [10] 94 % of control

Cc1ccc(NC(=O)C#N)cc1
inactive: dose: 15.0 mg/kg/injection, schedule: Q01DX005 (ip), vehicle: saline with Tween-80 107 % of control | dose: 30.0 mg/kg/injection, schedule: Q01DX005 (ip), vehicle: saline with Tween-80 96 % of control

COc1cccc(/C=C2/C(=O)N(c3ccc([N+](=O)[O-])cc3)N=C2C)c1
inactive: dose: 30.0 mg/kg/injection, schedule: Q01DX005 (ip), vehicle: Klucel (hydroxypropylcellulose) (HPC) 97 % of control | dose: 60.0 mg/kg/injection, schedule: Q01DX005 (ip), vehicle: Klucel (hydroxypropylcellulose) (HPC) 88 % of control | dose: 120.0 mg/kg/injection, schedule: Q01DX005 (ip), vehicle: Klucel (hydroxypropylcellulose) (HPC) 98 % of control | dose: 240.0 mg/kg/injection, schedule: Q01DX005 (ip), vehicle: Klucel (hydroxypropylcellulose) (HPC) 93 % of control
